Assay results published in patent US11672265B2, “Egg replacement containing euglena-derived components” (NOBLEGEN, INC., priority 2019, dated 2023).
Read-outs that look alike come from different tables or passages of the source.

Assays:
[1] = tested on: microbes in fresh biomass; test: Treatment of fresh biomass with nisin, TSA plates; type: cell-based, bacteria and yeast
Protocol: Method: Obtained fresh biomass and was washed 1 time with 2.5 times water. The biomass was diluted to 10% (solid content-10.36 w/w %, initial pH was pH 3.35 and the pH was adjusted to 7.2 using 2.5 M NaOH. […] Similarly, about the same amount of biomass without Nisin was also left at both conditions.

[2] = tested on: microbial growth in non-heat treated biomass; type: cell-based, yeast, mold, bacteria; conditions: refrigerator (4° C.) 5 days, CP 1000 ppm, SB + PS 1000 ppm each, BV 0.25% (w/w)
Protocol: A biomass stored in the refrigerator at harvested pH (pH 2.75) for 2 days after harvest was chosen for microbial analysis. Four different pH conditions were used for non-heat treated biomass storage, pH 3, 4.5, 5 and 7. Three different antimicrobials (see Table 19 for the names and usage levels) were added to biomass at each pH selected. Control without any antimicrobial agents were also stored at different selected pHs. All the biomass samples were stored in a 4° C. refrigerator for 5 days and a TSA plate assay was done to see the presence of any microbes at the 5 day mark.
Samples without any microbial growth were considered for further storage study. After 16 days of storage, a TSA plating was done on all the heat treated biomass and non-heated biomass with SB+PS at pH 3, 4.5 and 5.

Molecule | Presence of microbes in biomass treated with nisin ([1]; 70 ppm nisin, biomass pH 7.2, room temperature or 4° C., up to 24 hours) | Prevention of growth of microorganisms in fresh biomass or wet protein concentrate ([1]; 75 ppm of Nisin (conclusion)) | Microbial growth observed in non-heat treated biomass with antimicrobials ([2]; pH 3) | Microbial growth observed in non-heat treated biomass with antimicrobials ([2]; pH 4.5)
nisin | Presence of microbes were found at all storage conditions irrespective of the presence of nisin or storage time | will not be able to prevent the growth of microorganisms |  | 
CCC(=O)[O-].CCC(=O)[O-].[Ca+2] [CP, Calcium propionate] |  |  | yeast | yeast
